Experiments:
[1] = target: T1, PTPN1 (i.e., PTP1B) (Homo sapiens, UniProt P18031); assay: Phosphatase activity assay (DiFMUP substrate), PTP1B; assay type: biochemical; conditions: compounds binned ≤1 uM or >1 uM
T1 sequence (P18031 1-435): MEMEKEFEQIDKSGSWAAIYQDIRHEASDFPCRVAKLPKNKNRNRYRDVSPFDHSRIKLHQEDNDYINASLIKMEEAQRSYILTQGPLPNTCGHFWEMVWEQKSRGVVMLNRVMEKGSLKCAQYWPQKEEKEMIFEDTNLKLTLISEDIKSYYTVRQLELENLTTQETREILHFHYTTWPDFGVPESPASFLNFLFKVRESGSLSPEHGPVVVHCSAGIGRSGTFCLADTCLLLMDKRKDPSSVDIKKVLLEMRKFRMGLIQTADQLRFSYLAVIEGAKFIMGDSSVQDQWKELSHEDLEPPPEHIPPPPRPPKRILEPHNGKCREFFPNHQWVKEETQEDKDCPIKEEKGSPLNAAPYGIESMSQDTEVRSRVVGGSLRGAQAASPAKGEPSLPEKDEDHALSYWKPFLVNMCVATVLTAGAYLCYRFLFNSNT
Procedure, shortened: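 Read-out is continuous fluorescence of DiFMU (360 nm excitation, 450 nm emission) over about 15-30 minutes, with DiFMUP substrate at the enzyme's independently determined Km (PTPN2 approx. 45 μM final). Buffer: 50 mM HEPES pH 7.5, 150 mM NaCl, 0.5 mM EDTA, 1 mM DTT, 0.001% Tween-20, room temperature; initial rates versus 10-point dilution fitted for IC50, at least duplicate.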

[2] = target: T2, PTPN2 (i.e., TC-PTP) (Homo sapiens, UniProt P17706); assay: Phosphatase activity assay (DiFMUP substrate), PTPN2; assay type: biochemical; conditions: compounds binned ≤1 uM or >1 uM
T2 sequence (P17706 1-415): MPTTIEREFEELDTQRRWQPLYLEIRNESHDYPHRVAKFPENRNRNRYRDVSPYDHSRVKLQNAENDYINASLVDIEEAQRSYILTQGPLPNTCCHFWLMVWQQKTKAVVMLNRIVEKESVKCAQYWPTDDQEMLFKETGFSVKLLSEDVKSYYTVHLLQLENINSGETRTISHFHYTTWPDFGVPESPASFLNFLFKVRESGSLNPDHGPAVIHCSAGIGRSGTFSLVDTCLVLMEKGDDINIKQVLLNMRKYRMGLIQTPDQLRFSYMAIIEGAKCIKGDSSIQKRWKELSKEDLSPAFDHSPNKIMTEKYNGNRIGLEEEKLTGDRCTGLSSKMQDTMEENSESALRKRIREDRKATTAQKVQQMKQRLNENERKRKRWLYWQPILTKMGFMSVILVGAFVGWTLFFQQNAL
Procedure, shortened: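 Continuous fluorogenic readout of DiFMUP dephosphorylation at room temperature, substrate set at Km for each phosphatase (about 45 μM in the PTPN2 assay). The buffer contains 1 mM DTT and 0.001% Tween-20, pH 7.5.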

Structure (SMILES) | IC50 [1] [nM] | IC50 [2] [nM]
CC(C)S(=O)(=O)Nc1ccc(-c2ccc(O)c(N3CC(=O)NS3(=O)=O)c2F)cc1 [Compound 374, N-(3′-(1,1-dioxido-4-oxo-1,2,5-thiadiazolidin-2-yl)-2′-fluoro-4′-hydroxy-[1,1′-biphenyl]-4-yl)propane-2-sulfonamide] | ≤ 1000 | ≤ 1000
CC(=O)N(C)C1CC=C(c2ccc(O)c(N3CC(=O)NS3(=O)=O)c2F)CC1 (centres unmarked) [Compound 377, N-(3′-(1,1-dioxido-4-oxo-1,2,5-thiadiazolidin-2-yl)-2′-fluoro-4′-hydroxy-2,3,4,5-tetrahydro-[1,1′-biphenyl]-4-yl)-N-methylacetamide] | ≤ 1000 | ≤ 1000
O=C1CN(c2c(O)ccc(C3=CCCN(C4CC4)C3)c2F)S(=O)(=O)N1 [Compound 378, 5-(3-(1-cyclopropyl-1,2,5,6-tetrahydropyridin-3-yl)-2-fluoro-6-hydroxyphenyl)-1,2,5-thiadiazolidin-3-one 1,1-dioxide] | ≤ 1000 | ≤ 1000
O=C1CN(c2c(O)ccc(-c3cc(C4CC4)n(CC4CCCN4)n3)c2F)S(=O)(=O)N1 (centres unmarked) [Compound 382, 5-(3-(5-cyclopropyl-1-(pyrrolidin-2-ylmethyl)-1H-pyrazol-3-yl)-2-fluoro-6-hydroxyphenyl)-1,2,5-thiadiazolidin-3-one 1,1-dioxide] | ≤ 1000 | ≤ 1000
CO[C@H]1CC[C@@H](n2cc(-c3ccc(O)c(N4CC(=O)NS4(=O)=O)c3F)cn2)CC1 [Compound 383, 5-(2-fluoro-6-hydroxy-3-(1-((1s,4s)-4-methoxycyclohexyl)-1H-pyrazol-4-yl)phenyl)-1,2,5-thiadiazolidin-3-one 1,1-dioxide] | ≤ 1000 | ≤ 1000
O=C1CN(c2c(O)ccc(-c3ccc(NS(=O)(=O)C4CC4)c(F)c3)c2F)S(=O)(=O)N1 [Compound 384, N-(3′-(1,1-dioxido-4-oxo-1,2,5-thiadiazolidin-2-yl)-2′,3-difluoro-4′-hydroxy-[1,1′-biphenyl]-4-yl)cyclopropanesulfonamide] | ≤ 1000 | ≤ 1000
O=C1CN(c2c(O)ccc(-c3cn(CC4CCCCC4)nc3F)c2F)S(=O)(=O)N1 [Compound 385, 5-(3-(1-(cyclohexylmethyl)-3-fluoro-1H-pyrazol-4-yl)-2-fluoro-6-hydroxyphenyl)-1,2,5-thiadiazolidin-3-one 1,1-dioxide] | ≤ 1000 | ≤ 1000
O=C1CN(c2c(O)ccc(-c3cnn(CC4(Cl)CCC4)c3)c2F)S(=O)(=O)N1 [Compound 387, 5-(3-(1-((1-chlorocyclobutyl)methyl)-1H-pyrazol-4-yl)-2-fluoro-6-hydroxyphenyl)-1,2,5-thiadiazolidin-3-one 1,1-dioxide] | ≤ 1000 | ≤ 1000
Cc1noc(C)c1Cn1ccc(-c2ccc(O)c(N3CC(=O)NS3(=O)=O)c2F)c1 [Compound 390, 5-(3-(1-((3,5-dimethylisoxazol-4-yl)methyl)-1H-pyrrol-3-yl)-2-fluoro-6-hydroxyphenyl)-1,2,5-thiadiazolidin-3-one 1,1-dioxide] | ≤ 1000 | ≤ 1000
CC(C)CCn1cnc(-c2ccc(O)c(C3=CC(=O)NS3(=O)=O)c2F)c1 [Compound 391, 5-(2-fluoro-6-hydroxy-3-(1-isopentyl-1H-imidazol-4-yl)phenyl)isothiazol-3(2H)-one 1,1-dioxide] | ≤ 1000 | ≤ 1000
Cn1cc(-c2ccc(O)c(N3CC(=O)NS3(=O)=O)c2F)cc1CCC1CC1 [Compound 392, 5-(3-(5-(2-cyclopropylethyl)-1-methyl-1H-pyrrol-3-yl)-2-fluoro-6-hydroxyphenyl)-1,2,5-thiadiazolidin-3-one 1,1-dioxide] | ≤ 1000 | ≤ 1000
O=C1CN(c2c(O)ccc(C3=CCN(CC(F)(F)F)CC3)c2F)S(=O)(=O)N1 [Compound 393, 5-(2-fluoro-6-hydroxy-3-(1-(2,2,2-trifluoroethyl)-1,2,3,6-tetrahydropyridin-4-yl)phenyl)-1,2,5-thiadiazolidin-3-one 1,1-dioxide] | ≤ 1000 | ≤ 1000
O=C1CN(c2c(O)ccc(-c3ccc(NC(=O)C4CC4)cc3)c2F)S(=O)(=O)N1 [Compound 395, N-(3′-(1,1-dioxido-4-oxo-1,2,5-thiadiazolidin-2-yl)-2′-fluoro-4′-hydroxy-[1,1′-biphenyl]-4-yl)cyclopropanecarboxamide] | ≤ 1000 | ≤ 1000

Other lines, results leading:

IC50 [1] [nM] | IC50 [2] [nM] | Structure (SMILES)
≤ 1000 | ≤ 1000 | COCC1CCCN1c1cc(-c2ccc(O)c(N3CC(=O)NS3(=O)=O)c2F)[nH]n1 (centres unmarked) [Compound 372, 5-(2-fluoro-6-hydroxy-3-(3-(2-(methoxymethyl)pyrrolidin-1-yl)-1H-pyrazol-5-yl)phenyl)-1,2,5-thiadiazolidin-3-one 1,1-dioxide]
≤ 1000 | ≤ 1000 | N#CCCc1cc(-c2ccc(O)c(N3CC(=O)NS3(=O)=O)c2F)n[nH]1 [Compound 373, 3-(3-(3-(1,1-dioxido-4-oxo-1,2,5-thiadiazolidin-2-yl)-2-fluoro-4-hydroxyphenyl)-1H-pyrazol-5-yl)propanenitrile]
≤ 1000 | ≤ 1000 | Cc1n[nH]c(-c2ccc(O)c(N3CC(=O)NS3(=O)=O)c2F)c1C [Compound 375, 5-(3-(3,4-dimethyl-1H-pyrazol-5-yl)-2-fluoro-6-hydroxyphenyl)-1,2,5-thiadiazolidin-3-one 1,1-dioxide]
≤ 1000 | ≤ 1000 | CC(C)c1cc(-c2ccc(O)c(N3CC(=O)NS3(=O)=O)c2F)[nH]n1 [Compound 379, 5-(2-fluoro-6-hydroxy-3-(3-isopropyl-1H-pyrazol-5-yl)phenyl)-1,2,5-thiadiazolidin-3-one 1,1-dioxide]
≤ 1000 | ≤ 1000 | CC(C)CCc1cc(-c2ccc(O)c(N3CC(=O)NS3(=O)=O)c2F)nn1C [Compound 380, 5-(2-fluoro-6-hydroxy-3-(5-isopentyl-1-methyl-1H-pyrazol-3-yl)phenyl)-1,2,5-thiadiazolidin-3-one 1,1-dioxide]
≤ 1000 | ≤ 1000 | Cc1cnn(-c2ccc(O)c(N3CC(=O)NS3(=O)=O)c2F)c1 [Compound 386, 5-(2-fluoro-6-hydroxy-3-(4-methyl-1H-pyrazol-1-yl)phenyl)-1,2,5-thiadiazolidin-3-one 1,1-dioxide]
≤ 1000 | ≤ 1000 | COC1CCN(c2cc(-c3ccc(O)c(N4CC(=O)NS4(=O)=O)c3F)[nH]n2)C1 (centres unmarked) [Compound 388, 5-(2-fluoro-6-hydroxy-3-(3-(3-methoxypyrrolidin-1-yl)-1H-pyrazol-5-yl)phenyl)-1,2,5-thiadiazolidin-3-one 1,1-dioxide]
≤ 1000 | ≤ 1000 | CC(C)CCc1cc(-c2ccc(O)c(N3CC(=O)NS3(=O)=O)c2F)[nH]n1 [Compound 389, 5-(2-fluoro-6-hydroxy-3-(3-isopentyl-1H-pyrazol-5-yl)phenyl)-1,2,5-thiadiazolidin-3-one 1,1-dioxide]
≤ 1000 | ≤ 1000 | O=C1CN(c2c(O)ccc(-c3c[nH]c(C4CC4)c3)c2F)S(=O)(=O)N1 [Compound 394, 5-(3-(5-cyclopropyl-1H-pyrrol-3-yl)-2-fluoro-6-hydroxyphenyl)-1,2,5-thiadiazolidin-3-one 1,1-dioxide]

From US20240398828A1, “HETERO-ATOM CONTAINING COMPOUNDS AND USES THEREOF” (Kumquat Biosciences Inc., priority 2021, published 2024)
